For the experiment, the target named is T1, NHE-1 (Homo sapiens, UniProt P19634).
T1 construct: endogenous in cells; host or cells: HT-29
The experiment is described as follows: Evaluation of NHE-1 Inhibition (pHi) in HT-29 cells. It is filed as cell-based. The following applies: BCECF dye, 50% inhibition of the intracellular pH recovery, read-out: NHE1 HT29 pHi IC50. As for the experimental part: Evaluation of NHE-1 Inhibition (pHi)
HT-29 cells resuspended in DMEM supplemented with 10% FBS, 1% NEAA, and 1% Penn-Strep are seeded at 10,000 cells/well in collagen coated 384 well plates which are then incubated for 24 hours at 37° C. The next day, the medium is removed and the cells are dye (Invitrogen's BCECF) loaded for 30 minutes at 37° C., washed three times with an acid loading buffer (10 mM NH4Cl, 1.8 mM CaCl2, 90 mM Choline Cl, 5 mM Glucose, 15 mM Hepes, 5 mM KCl, 1 mM MgCl2, adjusted to pH 7.5 with KOH) and further incubated at RT for 30 minutes.
At the end of the incubation, the buffer is removed and 5 uL of fresh acid loading buffer is added to each well to prevent the dessication of the cells. The plate is placed in a Hamamatsu FDSS6000 instrument and candidate compounds are added to the cells.

T1 sequence (P19634 whole entry): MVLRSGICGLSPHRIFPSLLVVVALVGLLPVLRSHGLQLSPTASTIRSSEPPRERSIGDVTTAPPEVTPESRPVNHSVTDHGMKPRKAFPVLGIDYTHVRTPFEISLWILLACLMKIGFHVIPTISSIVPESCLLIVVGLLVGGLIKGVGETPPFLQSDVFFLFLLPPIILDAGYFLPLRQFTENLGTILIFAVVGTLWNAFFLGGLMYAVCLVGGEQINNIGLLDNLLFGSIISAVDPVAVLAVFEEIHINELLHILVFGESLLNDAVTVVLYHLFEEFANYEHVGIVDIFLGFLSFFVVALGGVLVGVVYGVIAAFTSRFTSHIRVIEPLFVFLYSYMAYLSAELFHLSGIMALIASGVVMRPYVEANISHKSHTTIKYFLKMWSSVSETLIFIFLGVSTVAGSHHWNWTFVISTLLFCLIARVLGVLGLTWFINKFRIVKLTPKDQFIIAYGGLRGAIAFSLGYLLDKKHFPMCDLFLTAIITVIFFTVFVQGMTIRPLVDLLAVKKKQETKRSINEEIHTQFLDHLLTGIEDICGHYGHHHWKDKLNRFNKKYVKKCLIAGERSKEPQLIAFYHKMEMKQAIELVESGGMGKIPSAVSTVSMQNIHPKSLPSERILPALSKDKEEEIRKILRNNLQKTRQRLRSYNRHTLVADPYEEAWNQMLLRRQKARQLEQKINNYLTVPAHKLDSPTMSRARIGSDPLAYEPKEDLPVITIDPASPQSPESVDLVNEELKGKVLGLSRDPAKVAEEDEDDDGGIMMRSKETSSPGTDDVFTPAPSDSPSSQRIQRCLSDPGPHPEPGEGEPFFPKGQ

By IC50 is commonly meant the concentration that inhibits the measured activity by half. `N=C(N)NC(=O)c1ccc(C2CCN(C(=O)C3(N)CCC3)CC2)c(C(F)(F)F)c1` [N-{4-[1-(1-Amino-cyclobutanecarbonyl)-piperidin-4-yl]-3-trifluoromethyl-benzoyl}-guanidine]: the IC50 is 31 nM.

For `CC1(C(=O)N2CCC(c3ccc(C(=O)NC(=N)N)cc3C(F)(F)F)CC2)CCCN1` (centres unmarked) [N-{4-[1-(2-Methyl-pyrrolidine-2-carbonyl)-piperidin-4-yl]-3-trifluoromethyl-benzoyl}-guanidine], the IC50 stood at 12 nM.

As to `N=C(N)NC(=O)c1ccc(C2CCN(C(=O)CCc3ccccc3)CC2)c(C(F)(F)F)c1` [N-{4-[1-(3-Phenyl-propionyl)-piperidin-4-yl]-3-trifluoromethyl-benzoyl}-guanidine], the IC50 was 75 nM.

Take `COc1cccc(-c2ccc(C(=O)N3CCC(c4ccc(C(=O)NC(=N)N)cc4C(F)(F)F)CC3)cn2)c1` [N-(4-{1-[6-(3-Methoxy-phenyl)-pyridine-3-carbonyl]-piperidin-4-yl}-3-trifluoromethyl-benzoyl)-guanidine]: the IC50 is 250 nM.

For the molecule `CC(C)C(N)C(=O)N1CCC(c2ccc(C(=O)NC(=N)N)cc2C(F)(F)F)CC1` (centres unmarked) [N-{4-[1-(2-Amino-3-methyl-butyryl)-piperidin-4-yl]-3-trifluoromethyl-benzoyl}-guanidine], the IC50 was found to be 12 nM.

Regarding `N=C(N)NC(=O)c1ccc(C2CCN(C(=O)Cc3cccnc3)CC2)c(C(F)(F)F)c1` [N-{4-[1-(2-Pyridin-3-yl-acetyl)-piperidin-4-yl]-3-trifluoromethyl-benzoyl}-guanidine], the IC50 was 27 nM.

For `COc1ccc(C(=O)N2CCC(c3ccc(C(=O)NC(=N)N)cc3C(F)(F)F)CC2)c2ccccc12` [N-{4-[1-(4-Methoxy-naphthalene-1-carbonyl)-piperidin-4-yl]-3-trifluoromethyl-benzoyl}-guanidine], the IC50 worked out at 320 nM.

As for `N=C(N)NC(=O)c1ccc(C2CCN(C(=O)c3ccc(C(F)(F)F)cc3)CC2)c(C(F)(F)F)c1` [N-{3-Triuoromethyl-4-[1-(4-trifluoromethyl-benzoyl)-piperidin-4-yl]-benzoyl}-guanidine], the IC50 amounted to 337 nM.

Consider `COc1cc(C2CCN(C(C)=O)CC2)c(C(F)(F)F)cc1C(=O)NC(=N)N` [N-[4-(1-Acetyl-piperidin-4-yl)-2-methoxy-5-trifluoromethyl-benzoyl]-guanidine], for which the IC50 came out at 14 nM.

Take `CS(=O)(=O)c1ccccc1C(=O)N1CC=C(c2ccc(C(=O)NC(=N)N)cc2C(F)(F)F)CC1` [N-{4-[1-(2-Methanesulfonyl-benzoyl)-1,2,3,6-tetrahydro-pyridin-4-yl]-3-trifluoromethyl-benzoyl}-guanidine]: the IC50 amounted to 73 nM.

Turning to `CC(=O)N1CCC(c2ccc(C(=O)NC(=N)N)cc2C(F)(F)F)CC1` [N-[4-(1-Acetyl-piperidin-4-yl)-3-trifluoromethyl-benzoyl]-guanidine], the concentration for half-maximal inhibition (IC50) is 9 nM.

With `N#Cc1ccc(C(=O)N2CCC(c3ccc(C(=O)NC(=N)N)cc3C(F)(F)F)CC2)cc1` [N-{4-[1-(4-Cyano-benzoyl)-piperidin-4-yl]-3-trifluoromethyl-benzoyl}-guanidine], the 50% inhibitory concentration (IC50) came to 24 nM.

With `COc1ncccc1C(=O)N1CCC(c2ccc(C(=O)NC(=N)N)cc2C(F)(F)F)CC1` [N-{4-[1-(2-Methoxy-pyridine-3-carbonyl)-piperidin-4-yl]-3-trifluoromethyl-benzoyl}-guanidine], the IC50 worked out at 42 nM.

Consider `CS(=O)(=O)c1ccc(C(=O)N2CCC(c3ccc(C(=O)NC(=N)N)cc3C(F)(F)F)CC2)cc1` [N-{4-[1-(4-Methanesulfonyl-benzoyl)-piperidin-4-yl]-3-trifluoromethyl-benzoyl}-guanidine], for which the half-maximal inhibitory concentration (IC50) was determined as 21 nM.

For the molecule `CN(C)c1cccc(C(=O)N2CCC(c3ccc(C(=O)NC(=N)N)cc3C(F)(F)F)CC2)c1` [N-{4-[1-(3-Dimethylamino-benzoyl)-piperidin-4-yl]-3-trifluoromethyl-benzoyl}-guanidine], the IC50 is 77 nM.

On to `COC(=O)c1ccc(C(=O)N2CCC(c3ccc(C(=O)NC(=N)N)cc3C(F)(F)F)CC2)cc1` [4-[4-(4-Guanidinocarbonyl-2-trifluoromethyl-phenyl)-piperidine-1-carbonyl]-benzoic acid methyl ester], for which the IC50 is 183 nM.

As to `COCC(=O)N1CCC(c2cc(C)c(C(=O)NC(=N)N)cc2S(C)(=O)=O)CC1` [N-{5-methanesulfonyl-4-[1-(2-methoxy-acetyl)-piperidin-4-yl]-2-methyl-benzoyl}-guanidine], the concentration for half-maximal inhibition (IC50) amounted to 15 nM.

Take `COc1ccc(C(=O)N2CCC(c3ccc(C(=O)NC(=N)N)cc3C(F)(F)F)CC2)cc1` [N-{4-[1-(4-Methoxy-benzoyl)-piperidin-4-yl]-3-trifluoromethyl-benzoyl}-guanidine]: the IC50 came out at 195 nM.

`N=C(N)NC(=O)c1ccc(C2CCN(C(=O)c3cccc(-c4cnco4)c3)CC2)c(C(F)(F)F)c1` [N-{4-[1-(3-Oxazol-5-yl-benzoyl)-piperidin-4-yl]-3-trifluoromethyl-benzoyl}-guanidine]: the IC50 came out at 14 nM.

With `N=C(N)NC(=O)c1ccc(C2CCN(C(=O)[C@@H]3CCC(=O)N3)CC2)c(C(F)(F)F)c1` [(S)-N-{4-[1-(-5-Oxo-pyrrolidine-2-carbonyl)-piperidin-4-yl]-3-trifluoromethyl-benzoyl}-guanidine], the IC50 came out at 11 nM.

For the molecule `COc1ccc(CC(=O)N2CCC(c3ccc(C(=O)NC(=N)N)cc3C(F)(F)F)CC2)cc1` [N-(4-{1-[2-(4-Methoxy-phenyl)-acetyl]-piperidin-4-yl}-3-trifluoromethyl-benzoyl)-guanidine], the IC50 turned out to be 140 nM.

For the molecule `Cn1ccnc1C(=O)N1CCC(c2ccc(C(=O)NC(=N)N)cc2C(F)(F)F)CC1` [N-{4-[1-(1-Methyl-1H-imidazole-2-carbonyl)-piperidin-4-yl]-3-trifluoromethyl-benzoyl}-guanidine], the IC50 stood at 15 nM.

Consider `Cc1cc(C2CCN(C(=O)c3ccc4[nH]ccc4c3)CC2)c(C(F)(F)F)cc1C(=O)NC(=N)N` [N-{4-[1-(1H-Indole-5-carbonyl)-piperidin-4-yl]-2-methyl-5-trifluoromethyl-benzoyl}-guanidine], for which the half-inhibitory concentration (IC50) came to 47 nM.

For `CS(=O)(=O)c1cc(C(=O)NC(=N)N)ccc1C1CCN(C(=O)c2cccc(C#N)c2)CC1` [N-{4-[1-(3-cyano-benzoyl)-piperidin-4-yl]-3-methanesulfonyl-benzoyl}-guanidine], the IC50 was found to be 34 nM.

As to `N=C(N)NC(=O)c1ccc(C2CCN(C(=O)C3(N)CCCCC3)CC2)c(C(F)(F)F)c1` [N-{4-[1-(1-Amino-cyclohexanecarbonyl)-piperidin-4-yl]-3-trifluoromethyl-benzoyl}-guanidine], the half-maximal inhibitory concentration (IC50) was determined as 33 nM.

Turning to `N=C(N)NC(=O)c1ccc(C2CCN(C(=O)[C@H](N)c3ccccc3)CC2)c(C(F)(F)F)c1` [(R)-N-{4-[1-(2-Amino-2-phenyl-acetyl)-piperidin-4-yl]-3-trifluoromethyl-benzoyl}-guanidine], the IC50 was 24 nM.

Turning to `Cc1ccc(C(=O)N2CCC(c3cc(C)c(C(=O)NC(=N)N)cc3C(F)(F)F)CC2)cn1` [N-{2-Methyl-4-[1-(6-methyl-pyridine-3-carbonyl)-piperidin-4-yl]-trifluoromethyl-benzoyl}-guanidine], the IC50 is 82 nM.

Turning to `Cn1cncc1C[C@H](N)C(=O)N1CCC(c2ccc(C(=O)NC(=N)N)cc2C(F)(F)F)CC1` [(S)-N-(4-{1-[2-Amino-3-(3-methyl-3H-imidazol-4-yl)-propionyl]-piperidin-4-yl}-3-trifluoromethyl-benzoyl)-guanidine], the concentration for half-maximal inhibition (IC50) worked out at 22 nM.

For `N=C(N)NC(=O)c1ccc(C2CCN(C(=O)c3ccc[nH]3)C2)c(C(F)(F)F)c1` (centres unmarked) [N-{4-[1-(1H-Pyrrole-2-carbonyl)-pyrrolidin-3-yl]-3-trifluoromethyl-benzoyl}-guanidine], the IC50 was 19 nM.

As for `C[C@@](N)(Cc1ccccc1)C(=O)N1CCC(c2ccc(C(=O)NC(=N)N)cc2C(F)(F)F)CC1` [(R)-N-{4-[1-(-2--Amino-2-methyl-3-phenyl-propionyl)-piperidin-4-yl]-3-trifluoromethyl-benzoyl}-guanidine], the IC50 amounted to 24 nM.

Take `CC(=O)N1CCC(c2ccc(C(=O)NC(=N)N)cc2S(C)(=O)=O)CC1` [N-[4-(1-Acetyl-piperidin-4-yl)-3-methanesulfonyl-benzoyl]-guanidine]: the IC50 stood at 18 nM.

For the molecule `CC(C)(C)C(N)C(=O)N1CCC(c2ccc(C(=O)NC(=N)N)cc2C(F)(F)F)CC1` (centres unmarked) [N-{4-[1-(2-Amino-3,3-dimethyl-butyryl)-piperidin-4-yl]-3-trifluoromethyl-benzoyl}-guanidine], the concentration for half-maximal inhibition (IC50) is 16 nM.

With `COc1cc(C2CCN(C(=O)c3ccn[nH]3)CC2)c(C(F)(F)F)cc1C(=O)NC(=N)N` [N-{2-Methoxy-4-[1-(2H-pyrazole-3-carbonyl)-piperidin-4-yl]-5-trifluoromethyl-benzoyl}-guanidine], the IC50 amounted to 6 nM.

With `COc1cc(C2CCN(C(=O)[C@@](C)(O)c3ccccc3)CC2)c(C(F)(F)F)cc1C(=O)NC(=N)N` [(S)-N-{4-[1-(2-Hydroxy-2-phenyl-propionyl)-piperidin-4-yl]-2-methoxy-5-trifluoromethyl-benzoyl}-guanidine], the IC50 was 200 nM.

Regarding `CS(=O)(=O)c1ccccc1Oc1cc(C(=O)N2CCC(c3ccc(C(=O)NC(=N)N)cc3C(F)(F)F)CC2)ccn1` [N-(4-{1-[2-(2-Methanesulfonyl-phenoxy)-pyridine-4-carbonyl]-piperidin-4-yl}-3-trifluoromethyl-benzoyl)-guanidine], the IC50 was determined as 76 nM.

Source of the values: US20110118262A1, “Pyrrolidinyl and Piperidinyl Compounds Useful as NHE-1 Inhibitiors” (BOEHRINGER INGELHEIM INTERNATIONAL GMBH, priority 2008, published 2011).
